# In ChEMBL document CHEMBL5604063, “ASAP - DENV-2 NS2B-NS3 protease fluorescence dose response” (2024):
# Values joined by “and” are separate entries in the source; they are usually repeats but may differ in a detail not shown here. Identical values can stand only once.
# Assays:
# Genome polyprotein [1] = target: T1, Genome polyprotein (dengue virus type 2, UniProt P29990); assay type: functional, Thailand/16681/1984
# Genome polyprotein [2] = target: T1, Genome polyprotein; assay type: functional, Thailand/16681/1984; remark: listed apart in the source
# T1 sequence (P29990 1346-1475 limits assumed): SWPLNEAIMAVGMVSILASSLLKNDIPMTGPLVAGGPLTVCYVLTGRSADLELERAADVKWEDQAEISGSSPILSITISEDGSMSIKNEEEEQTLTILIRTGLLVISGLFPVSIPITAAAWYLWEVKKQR
# T1 sequence (P29990 1476-2093 limits assumed): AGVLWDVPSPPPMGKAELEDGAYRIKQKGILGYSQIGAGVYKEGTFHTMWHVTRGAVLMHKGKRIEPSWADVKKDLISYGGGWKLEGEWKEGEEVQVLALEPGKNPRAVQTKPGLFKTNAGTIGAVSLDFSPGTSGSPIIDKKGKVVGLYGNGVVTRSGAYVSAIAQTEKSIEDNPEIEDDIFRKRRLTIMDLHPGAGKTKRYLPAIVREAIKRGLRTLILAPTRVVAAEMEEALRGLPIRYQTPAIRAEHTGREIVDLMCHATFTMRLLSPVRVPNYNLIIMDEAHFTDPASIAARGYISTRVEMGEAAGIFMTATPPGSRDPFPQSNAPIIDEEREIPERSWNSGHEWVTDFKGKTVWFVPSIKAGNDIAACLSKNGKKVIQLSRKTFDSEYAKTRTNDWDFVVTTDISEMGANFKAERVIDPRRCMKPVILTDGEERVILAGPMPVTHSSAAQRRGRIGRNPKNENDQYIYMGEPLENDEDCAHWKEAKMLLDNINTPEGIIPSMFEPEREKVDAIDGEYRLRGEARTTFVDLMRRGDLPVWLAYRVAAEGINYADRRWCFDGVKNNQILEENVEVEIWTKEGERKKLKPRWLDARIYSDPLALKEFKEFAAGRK
Compound,IC50 (Genome polyprotein [1]),IC50 (Genome polyprotein [2])
O=C(Nc1ccc2c(c1)CNC2)c1cc(F)cc2[nH]c(-c3ccccc3F)nc12,7.91 µM and 4.23 µM,18.5 µM and 33.8 µM
CC(C)c1cc(-c2ccc3[nH]c(C(=O)O)cc3c2)cc(S(N)(=O)=O)c1,> 99.5 µM,> 100 µM
Cc1onc(C(=O)Nc2cccc(CN)c2)c1COc1cccc(F)c1,> 99.5 µM,> 100 µM
O=C(Nc1ccc2c(c1)CNC2)N1C[C@H](C2CC2)C[C@@H]1C1CC1,> 99.5 µM,> 100 µM
O=C(Nc1ccc2c(c1)CNC2)c1cc(F)cc2[nH]ncc12,59.5 µM,37.8 µM and 24.3 µM
NCc1cccc(NC(=O)c2cccc3c2CC(=O)N3)c1,> 99.5 µM,> 100 µM
N[C@H]1CC[C@H](c2ccc(NC(=O)c3cc(Cl)cc(NC(=O)OCc4ccccc4)c3)cc2)C1,10.2 µM and 8.32 µM and 13 µM,84.2 µM
Cc1c(C(=O)Nc2cc(C(=O)N(C)[C@H]3C[C@H](O)C3)ccn2)cc(C2CC2)n1C,> 99.5 µM,> 100 µM
Cc1ccc(-c2cc(CN)cc([C@@H]3C[C@H]3c3cc(Cl)cc(NC(=O)OCc4ccccc4)c3)c2)cn1,31.5 µM,> 100 µM
O=C(Nc1ccc2c(c1)CNC2)N1CCC2(C1)CC(F)(F)C2,> 99.5 µM,> 100 µM
O=C(O)C[C@H]1CCCN1C(=O)c1cc(Cl)cc(NC(=O)OCc2ccccc2)c1,> 99.5 µM,> 100 µM
CN(c1ccc(Oc2ccccc2Cl)cc1)S(=O)(=O)c1cc(F)c(Cl)cc1C(=O)O,65.4 µM,46.5 µM
O=C(Nc1cc(-c2cccnc2)ccn1)c1cccc(C2CC2)c1,> 99.5 µM,> 100 µM
CC(C)(c1nc2c(C(=O)Nc3ccc4c(c3)CNC4)cc(F)cc2[nH]1)S(C)(=O)=O,33.6 µM and 26.3 µM,34.3 µM and 51.7 µM
O=C(Nc1cc(Cl)cc(C(=O)Nc2ccc3c(c2)C(=O)OC3)c1)OCc1ccccc1,> 99.5 µM,> 100 µM
Cc1c(C(=O)Nc2ccc3c(c2)CCC(=O)N3CC2CCC2)cc(C2CC2)n1C,> 99.5 µM,> 100 µM
Clc1cccc([C@H](C#Cc2ccccc2)Nc2cccc(-c3nn[nH]n3)c2)c1,7.71 µM,6.31 µM and 4.12 µM
Cc1cc([C@H](Nc2ccc3c(c2)CNC3)C(=O)NCC(F)F)cc(C(F)(F)F)c1,> 99.5 µM,> 100 µM
O=C(Nc1cc(Cl)cc(-c2ccc3cc(C(=O)O)[nH]c3c2)c1)OCc1ccccc1,7.42 µM,7.4 µM and 4.18 µM
N[C@H]1COC[C@H]1n1cc(C(=O)Nc2cc(-c3cccnc3)ccn2)cn1,> 99.5 µM,> 100 µM
NCc1cccc(NC(=O)c2c(F)c(Cl)cc(NC(=O)OCc3ccccc3)c2F)c1,> 99.5 µM,> 100 µM
O=C(Nc1ccc2c(c1)CNC2)c1cc(F)cc2[nH]c(-c3ccccc3)nc12,7.96 µM and 7.05 µM,5.75 µM
O=C(NCc1ccc(F)cc1)[C@H](Nc1ccc2c(c1)CNC2)c1cc(Cl)cc2[nH]ncc12,> 99.5 µM,> 100 µM

Compound,IC50 (Genome polyprotein [1]),IC50 (Genome polyprotein [2])
O=C(O)CCCc1ccc(NC(=O)c2cc(Cl)cc(NC(=O)OCc3ccccc3)c2)cc1,43.3 µM,27.3 µM and 21.1 µM
O=C1Cc2c(cccc2C(=O)Nc2ccc3c(c2)CCNCC3)N1,21 µM,33.8 µM
O=C(Nc1ccc2c(c1)CNC2)c1cc(F)cc2[nH]c(CCc3cccnc3)nc12,> 99.5 µM,> 100 µM
O=C(Nc1ccc2c(c1)CNC2)c1ccc2cc[nH]c2c1,> 99.5 µM,> 100 µM
O=C(NCC(F)F)[C@H](Nc1cc2c(cc1Br)CNC2)c1cc(Cl)cc(C2CC2)c1,> 99.5 µM,91.9 µM and 70.7 µM
O=C(Nc1ccc2c(c1)[C@H]1CC[C@H]2N1)c1cc(Cl)cc2[nH]ncc12,> 99.5 µM,> 100 µM
CCNC(=O)Nc1cc(Cl)cc(C(=O)O)c1,> 99.5 µM,> 100 µM
Cn1nc(C(=O)Nc2cc([C@H]3CCOC3)ccn2)cc1C1CC1,> 99.5 µM,> 100 µM
Cc1cc(C(=O)Nc2cccc(CN)c2)nc(C)n1,> 99.5 µM,> 100 µM
NC1(c2cccc(NC(=O)c3cc(Cl)cc(NC(=O)OCc4ccccc4)c3)c2)CCOCC1,> 99.5 µM,> 100 µM
N#Cc1cc(Cl)cc(C(=O)Nc2cccc(-n3nn[nH]c3=O)c2)c1,> 99.5 µM,> 100 µM
C[C@]1(OCCO)C(=O)Nc2cc(F)cc(C(=O)Nc3ccc4c(c3)CNC4)c21,> 99.5 µM,> 100 µM
O=C(Nc1ccc2c(c1)CNC2)c1cc(F)cc(-c2c[nH]c(=O)c(F)c2)c1,> 99.5 µM,> 100 µM
Cc1c(C(=O)O)sc2ncc(Cc3c[nH]c4ccc(Cl)cc34)cc12,46.7 µM,25.3 µM
Cc1cccc(CNc2ccc(Cl)cc2C(=O)Nc2cccc(CN)c2)n1,> 99.5 µM,> 100 µM
O=C(Nc1cc(Cl)cc(C(=O)Nc2ccc3c(c2)CNC3=O)c1)OCc1ccccc1,> 99.5 µM,> 100 µM
O=C(Cn1ccnc(N2CC[C@H](CO)C2)c1=O)N1CCOCC1,> 99.5 µM,> 100 µM
NCc1cccc(NC(=O)c2cncc(Cl)c2)c1,> 99.5 µM,> 100 µM
Cc1cc(C)n([C@H]2CCCN(C(=O)Nc3ccc4c(c3)CNC4)C2)n1,> 99.5 µM,> 100 µM
CC(C)NC(=O)[C@H](Nc1ccc2c(c1)CNC2)c1cc(F)cc2[nH]ccc12,> 99.5 µM,> 100 µM
O=C(O)C[C@H]1CN(c2ccc(-c3cc(Cl)cc(NC(=O)OCc4ccccc4)c3)cn2)CCO1,35.2 µM,22.2 µM
O=C(O)c1cc2cc(-c3cccc([C@H]4CNCCO4)c3)ccc2[nH]1,> 99.5 µM,> 100 µM
O=C(Nc1cc(-c2cccnc2)ccn1)c1sc2c(c1Br)CNC2,> 99.5 µM,> 100 µM

Compound,IC50 (Genome polyprotein [1]),IC50 (Genome polyprotein [2])
O=C(Nc1ccc2c(c1)CN[C@H]2CC1CC1)c1cc(F)cc2[nH]ncc12,37.9 µM,31.3 µM and 22.1 µM
CS(=O)(=O)c1ccc(CN)cc1NC(=O)c1cc(Cl)cc(NC(=O)OCc2ccccc2)c1,> 99.5 µM,> 100 µM
O=C(Nc1ccc2c(c1)CN(C(=O)C(F)(F)F)C2)c1cc(Cl)cc2[nH]ncc12,> 99.5 µM,> 100 µM
N#CCOc1ccc(Br)cc1[C@H](Nc1ccc2c(c1)CNC2)C(=O)NCC(F)F,> 99.5 µM,> 100 µM
Cc1c(C(=O)Nc2cc(C(=O)N3Cc4cn[nH]c4C3)ccn2)cc(C2CC2)n1C,> 99.5 µM,> 100 µM
NCc1cc(C(=O)O)cc([C@@H]2C[C@H]2c2cc(Cl)cc(NC(=O)OCc3ccccc3)c2)c1,> 99.5 µM,> 100 µM
Cc1c(C(=O)Nc2cc(CCCN)ccn2)cc(C2CCCCC2)n1C,> 99.5 µM,> 100 µM
Cc1cc(C(=O)Nc2cc(-c3cccnc3)ccn2)c(C)n1C,> 99.5 µM,> 100 µM
NCc1cc(NC(=O)c2cc(Cl)cc(NC(=O)OCc3ccccc3)c2)cc(C2=CC[C@H](C(=O)O)CC2)c1,> 99.5 µM,> 100 µM
C[C@H]1CCN1C(=O)Cn1ccnc(N2CC[C@H](CO)C2)c1=O,> 99.5 µM,> 100 µM
O=C(Nc1cc(-c2cccnc2)ccn1)c1cc(C2CC2)on1,> 99.5 µM,> 100 µM
CCOCCCN1Cc2ccc(NC(=O)c3cc(Cl)cc4[nH]ncc34)cc2C1,> 99.5 µM,> 100 µM
COCCN1C(=O)CCc2cc(NC(=O)c3cc(C4CC4)n(C)c3C)ccc21,> 99.5 µM,> 100 µM
O=C(O)c1cc2cc(-c3cc(Cl)cc4c3CCNC4=O)ccc2[nH]1,> 99.5 µM,> 100 µM
O=C(Nc1ccc2c(c1)CNC2)N1CCC[C@H]1Cc1cc2ccccc2o1,> 99.5 µM,> 100 µM
O=C(Nc1ccc2c(c1)CNC2)c1cc(F)cc2c1CCC2,> 99.5 µM,> 100 µM
O=C(O)Cc1cccc(NC(=O)c2cc(Cl)cc(NC(=O)OCc3ccccc3)c2)c1,74.6 µM,40 µM
O=C(Nc1cc2c(c(C3=CCOCC3)c1)CNC2)c1cc(F)cc2[nH]ncc12,29.7 µM and 19.8 µM,27.2 µM and 45.2 µM
O=C(Nc1cc(-c2cccnc2)ccn1)c1cc(C2CC2)no1,> 99.5 µM,> 100 µM
O=C(Nc1ccc2c(c1)CN[C@H]2CO)c1cc(F)cc2[nH]ncc12,> 99.5 µM,> 100 µM
NC(=O)c1[nH]c2ccc(Br)cc2c1Cc1ccc(-c2nnn[nH]2)cc1,54.7 µM,26.8 µM
O=C1Cc2c(cccc2C(=O)Nc2cc([C@H]3CCOC3)ccn2)N1,> 99.5 µM,> 100 µM
